In one series the target is Protease (Human immunodeficiency virus 1, UniProt Q9YQ12). The experiment in a line: Inhibition of Human immunodeficiency virus 1 protease using Lys-Ala-Arg-Val-Leu-Phe(NO2)-Glu-Ala-Met as substrate.
The target of series [1] is Protease (Human immunodeficiency virus 1) (UniProt Q9YQ12). Nature of the series: Inhibition of Human immunodeficiency virus 1 protease expressed in human 293T cells cotransfected with pGAGPOL and pGAG assessed as Gagp24 protein expression after 48 hr by Western blot analysis. It is filed as cell-based.
In series [2] the test system is Simian immunodeficiency virus. The experiment in a line: Antiviral activity against Simian immunodeficiency virus infected CEM174 cells assessed as inhibition of viral-induced syncytium formation after 5 days by microscopic analysis. It is filed as functional, organism-based. The note with it: CEM174, 120 h.
Series [3] in a line: Cytotoxicity against Homo sapiens (human) CEM174 cells. It is filed as cell-based. Particulars: read-out: TC50 (the source's name).
Series [4] can be described thus: Therapeutic index, ratio of TC50 for human CEM174 cells to EC50 for SIV infected in human CEM174 cells. It is filed as cell-based. The note with it: CEM174 cells (uninfected for TC50, SIV-infected for EC50), read-out: TI.

The source made the active and inactive calls. No cut-off for these calls is given here.

Protease, sequence (Q9YQ12 whole entry): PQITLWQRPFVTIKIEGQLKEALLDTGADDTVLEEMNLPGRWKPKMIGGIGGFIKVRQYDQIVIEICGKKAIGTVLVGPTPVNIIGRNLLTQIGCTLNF
Protease (Human immunodeficiency virus 1), sequence (Q9YQ12 as listed by the source): as the sequence (Q9YQ12 whole entry) above

For orientation: IC50 means the concentration needed to halve the response being measured. On Protease, `CCOc1ccc(OCC)c(SC2=C(O)CC(COc3ccc4ccccc4c3)(c3ccccc3)OC2=O)c1` (racemic) had an IC50 of 9.2 nM. For the same compound, the inhibition entry in series [1] was “Active”.

With `O=C1OC(CSc2ccccc2)(c2ccccc2)CC(O)=C1Sc1ccccc1Cl` (racemic), at Protease, the IC50 came out at 70 nM. For `O=C1OC(COc2cccc3ccccc23)(c2ccccc2)CC(O)=C1Sc1ccccc1` (racemic), inhibition on Protease was half-maximal at 159 nM (IC50).

Turning to `Cc1ccccc1SC1=C(O)CC(COc2ccc3ccccc3c2)(c2ccccc2)OC1=O` (racemic), the midpoint of inhibition at Protease, the IC50, lay at 61 nM. The same measure, in the same setting: the value for `Cc1ccc(C)c(SC2=C(O)CC(COc3cccc4ccccc34)(c3ccccc3)OC2=O)c1` (racemic) was 126 nM. For orientation: EC50 means the concentration at which the effect is half-maximal. In the case of `CC(C)(C)NC(=O)[C@@H]1CN(Cc2cccnc2)CCN1C[C@@H](O)C[C@@H](Cc1ccccc1)C(=O)N[C@H]1c2ccccc2C[C@H]1O`, in series [2], the EC50 is under 100 nM. Moreover, the CC50 in series [3] was over 100000 nM. Further, the selectivity ratio in series [4] is over 1000. As to `O=C1OC(COc2ccc3ccccc3c2)(c2ccccc2)CC(O)=C1Sc1ccccc1` (racemic), the IC50 against Protease was found to be 126 nM.

Consider `CCOc1ccc(OCC)c(SC2=C(O)CC(CSc3ccccc3)(c3ccccc3)OC2=O)c1` (racemic), for which it took 24 nM to reach half-maximal inhibition against Protease (IC50). On the same count and under the same terms, the value for `O=C1OC(COc2cccc3ccccc23)(c2ccccc2)CC(O)=C1Sc1ccccc1Cl` (racemic) was 59 nM; that for `O=C(O)CCCCC1(CCc2ccccc2)CC(O)=C(SCCc2ccccc2)C(=O)O1` (centres undefined) was 5 nM. In turn, `Cc1ccc(C(C)C)c(SC2=C(O)CC(CCc3ccccc3)(C(C)C)OC2=O)c1` (centres undefined) registered an IC50 against Protease of 1.1 nM. In addition, the EC50 in series [2] amounted to 15000 nM. As to `CCc1ccccc1SC1=C(O)CC(COc2ccc3ccccc3c2)(c2ccccc2)OC1=O` (racemic), the IC50 at Protease came to 22 nM. Turning to `O=C1OC(CSc2ccccc2)(c2ccccc2)CC(O)=C1Sc1ccccc1` (racemic), it took 258 nM to reach half-maximal inhibition on Protease (IC50).

`CCc1ccccc1SC1=C(O)CC(CSc2ccccc2)(c2ccccc2)OC1=O` (racemic) displayed an IC50 on Protease of 238 nM. The same measure, in the same setting: the value for `Cc1ccccc1SC1=C(O)CC(COc2cccc3ccccc23)(c2ccccc2)OC1=O` (racemic) was 64 nM; that for `O=C1OC(COc2ccc3ccccc3c2)(c2ccccc2)CC(O)=C1Sc1ccccc1Cl` (racemic) was 89 nM. At Protease, `CCOc1ccc(OCC)c(SC2=C(O)CC(COc3cccc4ccccc34)(c3ccccc3)OC2=O)c1` (racemic) gave a half-inhibitory concentration (IC50) of 3.5 nM. For the same compound, in series [1], the inhibition entry was “Active”.

In the case of `Cc1ccc(C)c(SC2=C(O)CC(COc3ccc4ccccc4c3)(c3ccccc3)OC2=O)c1` (racemic), half-maximal inhibition at Protease (IC50) was put at 65 nM. The same measure, in the same setting: next, `O=C1OC(COc2ccc3ccccc3c2)(c2ccccc2)CC(O)=C1SCc1ccccc1` (racemic): 73 nM; `Cc1ccccc1SC1=C(O)CC(CSc2ccccc2)(c2ccccc2)OC1=O` (racemic): 240 nM; `O=C1OC(CSc2ccccc2)(c2ccccc2)CC(O)=C1SCc1ccccc1` (racemic): 32 nM. On the same count and under the same terms, the value for `O=C1OC(COc2cccc3ccccc23)(c2ccccc2)CC(O)=C1SCc1ccccc1` (racemic) was 128 nM; that for `Cc1ccc(C)c(SC2=C(O)CC(CSc3ccccc3)(c3ccccc3)OC2=O)c1` (racemic) was 196 nM; that for `CCc1ccccc1SC1=C(O)CC(COc2cccc3ccccc23)(c2ccccc2)OC1=O` (racemic) was 100 nM.

For the origin of these results see ChEMBL document CHEMBL3046115, “Modification and biological evaluation of novel 4-hydroxy-pyrone derivatives as non-peptidic HIV-1 protease inhibitors” (Med Chem Res, 2011).
